Measurements as given in article PMC12526212, “Novel Isolongifolenone-Based Caprolactam Derivatives as Potential Anticancer Agents via the p53/mTOR/Autophagy Pathway” (Molecules, 2025).
Where two headings read alike, the source gives them in different places.

Tests used:
MCF-7 = assay: CCK-8 antiproliferative assay, MCF-7; assay type: cell-based; settings: Homo sapiens, read-out: IC50 MCF-7
Method: (§1) After synthesis and characterization, the isolongifolenone bicyclocaprolactam derivatives were evaluated for their in vitro antiproliferative activity against three cancer cell lines (MCF-7, HepG2, A549) using a CCK-8 assay. […] In general, the antiproliferative activities of most of these compounds were similar, irrespective of whether electron-withdrawing or electron-donating substituents were introduced in the phenoxy ring.
(§2) Three cancer cell lines (human breast adenocarcinoma cells MCF-7, human lung adenocarcinoma epithelial cells A549, and human hepatocellular carcinoma cells HepG2) were obtained from the Cell Bank of the Chinese Academy of Sciences (Shanghai, China). LO2 human normal liver cells were also purchased from STEM RECELL (Beijing, China, STM-CL-5770). The anti-proliferation activity of compounds was tested on three cancer cell lines. The cytotoxicity of compounds as tested on normal cell line (human normal liver cells LO2). Cells were seeded at a density of 5000 cells per well in 96-well plates. Natural product piperlongumine was used as the positive control. All experiments were performed in triplicate. Three cancer cell lines were cultured in High DMEM medium or RIPM 1640 containing 10% FBS (Sijiqing, Hangzhou, China) and 1% antibiotics at 37 °C in a 5% CO2 incubator. The experimental cells were seeded in a 96-well plate at 5000 cells per well and incubated for 24 h. The old medium was replaced with experimental medium, and the cells were cultured for 48 h. Afterward, 10 µL of CCK-8 solution was added to each well, and the cells were incubated for 3 h. The absorbance at 450 nm was measured using a microplate reader.

HepG2 = assay: CCK-8 antiproliferative assay, HepG2; assay type: cell-based; settings: Homo sapiens, read-out: IC50 HepG2
Method: as §1, §2

A549 = assay: CCK-8 antiproliferative assay, A549; assay type: cell-based; settings: Homo sapiens, read-out: IC50 A549
Method: as §1, §2

LO2 = assay: CCK-8 cytotoxicity on normal cell line LO2; assay type: cell-based; settings: Homo sapiens, L02; normal liver cells, CCK-8, 48 h, mean ± SD of three experiments
Method: as §2

[1] = tested on: three cancer cell lines (MCF-7, HepG2, A549); assay: CCK-8 antiproliferative assay, three cancer cell lines together; assay type: cell-based, human
Method: as §1, §2

MCF-7 xenograft = assay: Zebrafish MCF-7 xenograft model; assay type: in vivo; settings: 48 h, compared with PBS control; Dox 1.0 μM
Description: Zebrafish have become a well-established model for both anticancer drug discovery and toxicity evaluation. This animal model affords several unique advantages, including rapid development, optical transparency, and genetic conservation with humans. These features make zebrafish particularly suitable for high-throughput in vivo screening and mechanistic studies in oncology research. Tumor burden in zebrafish xenografts is commonly quantified from Dil/DiI-labeled fluorescence area or integrated intensity, which correlates with cell number and treatment response. To assess the in vivo antitumor efficacy of compound E10, we established a zebrafish xenograft model. Briefly, CM-Dil-labeled MCF-7 cells (showing red fluorescence) were microinjected into the yolk sacs of zebrafish embryos. The xenografted zebrafish were then randomly assigned into five groups: three E10-treatment groups (0.5 µg/mL, 1.0 µg/mL, and 2.0 µg/mL), a Doxorubicin (Dox) positive control group, and a PBS negative control group.
All experimental procedures were approved by ACUC of Shandong Academy of Sciences (Animal Care and Use Committee). Wild-type AB of zebrafish were obtained from Biology Institute, Qilu University of Technology. The embryos were incubated in special embryonic medium (0.17 mM KCl, 5.0 mM NaCl, 0.4 mM CaCl2, and 0.16 mM MgSO4) at 28 °C. 48 h-old zebrafish embryos were microinjected with CM-Dil labelled MCF-7 cells under stereomicroscopy. After injection, zebrafish embryos with the same injection spot were randomly planted on a six-well plate. These xenograft zebrafish were sorted into four groups of about 15–20 zebrafish each and treated with 0.5, 1.0, 2.0 μg/mL of compound E10 for 48 h, 1.0 μM doxorubicin as a positive control group. After treatment, the fluorescence intensity of living cells was examined with laser confocal microscopy (Olympus, Tokyo, Japan).

[2] = MCF7, CCK-8, 48 h, mean ± SD of three experiments
[3] = HepG2, CCK-8, 48 h, mean ± SD of three experiments
[4] = A549, CCK-8, 48 h, mean ± SD of three experiments

Row | Compound | IC50 (MCF-7; [2]) | IC50 (HepG2; [3]) | IC50 (A549; [4]) | IC50 (LO2) | IC50 (MCF-7; MCF7, 48 h) | IC50 (HepG2; HepG2, 48 h) | IC50 (A549; A549, 48 h) | antiproliferative / anticancer activity [1] | fluorescence intensity of xenograft (MCF-7 xenograft)
1 | COc1cc(/C=C/C(=O)N2CCC=CC2=O)cc(OC)c1OC [PL, Piperlongumine, reference compound] |  |  |  |  | 2.79 ± 0.43 µM | 3.46 ± 0.25 µM | 5.83 ± 0.26 µM |  | 
2 | CC1(C)C2=CC(=O)N(C(=O)C=Cc3cccnc3)CC(C)(C)C23CCC1C3 (stereo not drawn) [E18, 5,5,9,9-Tetramethyl-3-(3-(pyridin-3-yl)acryloyl)-4,5,6,7,8,9-hexahydro-5a,8-methanobenzo[d]azepin-2(3H)-one] | > 20 µM | > 20 µM | > 20 µM | > 20 µM |  |  |  | entirely lost | 
3 | CC1(C)C2=CC(=O)N(C(=O)C=Cc3cccc(F)c3)CC(C)(C)C23CCC1C3 (stereo not drawn) [E6, 5,5,9,9-Tetramethyl-3-(3-(3-fluorophenyl)acryloyl)-4,5,6,7,8,9-hexahydro-5a,8-methanobenzo[d]azepin-2(3H)-one] | 5.32 ± 0.11 µM | 5.96 ± 0.05 µM | 5.34 ± 0.16 µM | > 20 µM |  |  |  |  | 
4 | CC1(C)C2=CC(=O)N(C(=O)C=Cc3ccccc3C(F)(F)F)CC(C)(C)C23CCC1C3 (stereo not drawn) [E11, 5,5,9,9-Tetramethyl-3-(3-(2-(trifluoromethyl)phenyl)acryloyl)-4,5,6,7,8,9-hexahydro-5a,8-methanobenzo[d]azepin-2(3H)-one] | 5.63 ± 0.3 µM | 4.53 ± 0.12 µM | 18.3 ± 0.21 µM | > 20 µM |  |  |  |  | 
5 | CC1(C)C2=CC(=O)N(C(=O)C=Cc3ccc(Cl)cc3)CC(C)(C)C23CCC1C3 (stereo not drawn) [E3, 5,5,9,9-Tetramethyl-3-(3-(4-chlorophenyl)acryloyl)-4,5,6,7,8,9-hexahydro-5a,8-methanobenzo[d]azepin-2(3H)-one] | 18.97 ± 0.13 µM | 7.09 ± 0.33 µM | 16.9 ± 0.27 µM | > 20 µM |  |  |  |  | 
6 | COc1ccccc1C=CC(=O)N1CC(C)(C)C23CCC(C2)C(C)(C)C3=CC1=O (stereo not drawn) [E9, 5,5,9,9-Tetramethyl-3-(3-(2-methoxyphenyl)acryloyl)-4,5,6,7,8,9-hexahydro-5a,8-methanobenzo[d]azepin-2(3H)-one] | 2.22 ± 0.07 µM | 2.17 ± 0.24 µM | 2.13 ± 0.16 µM | > 20 µM |  |  |  |  | 
7 | COc1cccc2c1C(=O)c1c(O)c3c(c(O)c1C2=O)C[C@@](O)(C(=O)CO)C[C@@H]3O[C@H]1C[C@H](N)[C@H](O)[C@H](C)O1 [Dox, Doxorubicin, reference compound] |  |  |  |  |  |  |  |  | notable reduction in fluorescence intensity
8 | CC1(C)C2=CC(=O)N(C(=O)C=Cc3ccc(C(F)(F)F)cc3)CC(C)(C)C23CCC1C3 (stereo not drawn) [E4, 5,5,9,9-Tetramethyl-3-(3-(4-(trifluoromethyl)phenyl)acryloyl)-4,5,6,7,8,9-hexahydro-5a,8-methanobenzo[d]azepin-2(3H)-one] | 16.74 ± 0.16 µM | > 20 µM | 14.98 ± 0.1 µM | > 20 µM |  |  |  |  | 
9 | COc1ccc(C=CC(=O)N2CC(C)(C)C34CCC(C3)C(C)(C)C4=CC2=O)cc1 (stereo not drawn) [E16, 5,5,9,9-Tetramethyl-3-(3-(4-methoxyphenyl)acryloyl)-4,5,6,7,8,9-hexahydro-5a,8-methanobenzo[d]azepin-2(3H)-one] | 2.67 ± 0.18 µM | 2.44 ± 0.16 µM | 5.28 ± 0.1 µM | > 20 µM |  |  |  |  | 
10 | CC1(C)C2=CC(=O)N(C(=O)C=Cc3ccc(F)c(F)c3)CC(C)(C)C23CCC1C3 (stereo not drawn) [E19, 5,5,9,9-Tetramethyl-3-(3-(3,4-difluorophenyl)acryloyl)-4,5,6,7,8,9-hexahydro-5a,8-methanobenzo[d]azepin-2(3H)-one] | 17.07 ± 0.06 µM | 18.43 ± 0.16 µM | 18.9 ± 0.16 µM | > 20 µM |  |  |  | good anticancer activity | 
11 | CC1(C)C2=CC(=O)N(C(=O)C=Cc3ccc(F)cc3)CC(C)(C)C23CCC1C3 (stereo not drawn) [E1, 5,5,9,9-Tetramethyl-3-(3-(4-fluorophenyl)acryloyl)-4,5,6,7,8,9-hexahydro-5a,8-methanobenzo[d]azepin-2(3H)-one] | 9.18 ± 0.11 µM | > 20 µM | 11.7 ± 0.16 µM | > 20 µM |  |  |  |  | 
12 | CC1(C)C2=CC(=O)N(C(=O)C=Cc3cccc(Cl)c3)CC(C)(C)C23CCC1C3 (stereo not drawn) [E7, 5,5,9,9-Tetramethyl-3-(3-(3-chlorophenyl)acryloyl)-4,5,6,7,8,9-hexahydro-5a,8-methanobenzo[d]azepin-2(3H)-one] | 2.67 ± 0.11 µM | 6.67 ± 0.06 µM | 2.28 ± 0.1 µM | > 20 µM |  |  |  |  | 
13 | Cc1ccccc1C=CC(=O)N1CC(C)(C)C23CCC(C2)C(C)(C)C3=CC1=O (stereo not drawn) [E5, 5,5,9,9-Tetramethyl-3-(3-(2-tolyl)acryloyl)-4,5,6,7,8,9-hexahydro-5a,8-methanobenzo[d]azepin-2(3H)-one] | 2.86 ± 0.12 µM | 1.86 ± 0.09 µM | 3.89 ± 0.44 µM | > 20 µM |  |  |  |  | 

The next lines start with results.

Row | IC50 (MCF-7; [2]) | IC50 (HepG2; [3]) | IC50 (A549; [4]) | Compound | IC50 (LO2) | IC50 (MCF-7; MCF7, 48 h) | IC50 (HepG2; HepG2, 48 h) | IC50 (A549; A549, 48 h) | antiproliferative / anticancer activity [1] | fluorescence intensity of xenograft (MCF-7 xenograft)
14 | 1.26 ± 0.19 µM | 4.89 ± 0.52 µM | 3.55 ± 0.04 µM | CC1(C)C2=CC(=O)N(C(=O)C=Cc3cccc(Br)c3)CC(C)(C)C23CCC1C3 (stereo not drawn) [E12, 5,5,9,9-Tetramethyl-3-(3-(3-bromophenyl)acryloyl)-4,5,6,7,8,9-hexahydro-5a,8-methanobenzo[d]azepin-2(3H)-one] | 11.26 ± 0.06 µM |  |  |  |  | 
15 | 2.12 ± 0.04 µM | 2.67 ± 0.16 µM | 4.64 ± 0.06 µM | CC1(C)C2=CC(=O)N(C(=O)C=Cc3ccccc3Br)CC(C)(C)C23CCC1C3 (stereo not drawn) [E13, 5,5,9,9-Tetramethyl-3-(3-(2-bromophenyl)acryloyl)-4,5,6,7,8,9-hexahydro-5a,8-methanobenzo[d]azepin-2(3H)-one] | > 20 µM |  |  |  |  | 
16 | 2.16 ± 0.03 µM | 2.56 ± 0.16 µM | 5.28 ± 0.08 µM | COc1ccc(C=CC(=O)N2CC(C)(C)C34CCC(C3)C(C)(C)C4=CC2=O)cc1OC (stereo not drawn) [E17, 5,5,9,9-Tetramethyl-3-(3-(3,4-dimethoxyphenyl)acryloyl)-4,5,6,7,8,9-hexahydro-5a,8-methanobenzo[d]azepin-2(3H)-one] | > 20 µM |  |  |  | good anticancer activity | 
17 | 1.27 ± 0.04 µM | 2.38 ± 0.16 µM | 3.21 ± 0.16 µM | CC1(C)C2=CC(=O)N(C(=O)C=Cc3ccc(Br)cc3)CC(C)(C)C23CCC1C3 (stereo not drawn) [E14, 5,5,9,9-Tetramethyl-3-(3-(4-bromophenyl)acryloyl)-4,5,6,7,8,9-hexahydro-5a,8-methanobenzo[d]azepin-2(3H)-one] | > 20 µM |  |  |  |  | 
18 | 1.58 ± 0.16 µM | 2.09 ± 0.16 µM | 3.47 ± 0.16 µM | CC1(C)C2=CC(=O)N(C(=O)C=Cc3ccccc3Cl)CC(C)(C)C23CCC1C3 (stereo not drawn) [E15, 5,5,9,9-Tetramethyl-3-(3-(2-chlorophenyl)acryloyl)-4,5,6,7,8,9-hexahydro-5a,8-methanobenzo[d]azepin-2(3H)-one] | > 20 µM |  |  |  |  | 
19 | 1.29 ± 0.04 µM | 6.6 ± 0.07 µM | 3.18 ± 0.16 µM | Cc1ccc(C=CC(=O)N2CC(C)(C)C34CCC(C3)C(C)(C)C4=CC2=O)cc1 (stereo not drawn) [E2, 5,5,9,9-Tetramethyl-3-(3-(4-tolyl)acryloyl)-4,5,6,7,8,9-hexahydro-5a,8-methanobenzo[d]azepin-2(3H)-one] | > 20 µM |  |  |  |  | 
